In patent publication US7915297B2, “Isoxazole derivatives and use thereof” (SK Holdings Co., Ltd., priority 2005, dated 2011) one finds Emax and activity data, which are given here for 20 compounds.

Where only a bound is given, the exact number is not on record here.

The test system of assay [1] is Wnt/β-catenin signaling (β-catenin activity) in HEK293 cell line. Briefly: Cell-based Wnt agonist screening, TCF luciferase reporter, HEK293 (TCF-FL). On the set-up: species or system human. The settings on record: Homo sapiens, HEK293, 24 h, % of LiCl (20 mM), 24 h, read-out: Max. Activity (%); for Emax at 30 µM: Conc. 30 μM; for Emax at 120 µM: Conc. 120 μM; for Emax at 10 µM: Conc. 10 μM. The gist of the method: (§1)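 HEK293 and SW480 lines stably carried a 5X TCF firefly luciferase reporter under G418 selection. Cells (8,000–15,000/well, RPMI 1640 with 5% FBS) were grown 24 h, then treated with compound for 24 h. Luciferase activity was expressed as percent of the 20 mM LiCl positive control.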
In general terms: Reporter assays use an easily measured gene product as a stand-in for the process of interest.

Assay [2] deals with Wnt/β-catenin signaling (β-catenin activity) in SW480 cell line. Briefly: Cell-based Wnt agonist screening, TCF luciferase reporter, SW480 (TCF-FL). On the set-up: species or system human. The settings on record: Homo sapiens, % of LiCl (20 mM), 24 h, read-out: Max. Activity (%); for Emax at 30 µM: Con. 30 μM; for Emax at 120 µM: Con. 120 μM; for Emax at 10 µM: Con. 10 μM. The gist of the method: as §1

In assay [3] the test system is ST-2, a murine bone marrow stromal T cell. Briefly: Differentiation of ST2 cell line into osteoblasts, alkaline phosphatase activity. The conditions noted are these: Mus musculus, 96 h; ST-2 cells, 11 μM compound, 4 days; control treated only with ascorbic acid and β-glycerolphosphate = 100; read-out: ALP Activity (% Control). In kind it is cell-based. How it is done:
The derivatives synthesized according to the present invention were assayed for their ability to differentiate stem cells into osteoblasts. In this regard, ST-2, a murine bone marrow stromal T cell, was used to measure the activity of bone-specific alkaline phosphatase, a marker of early-stage osteoblast differentiation. In detail, the cell line was cultured in an MEM supplemented with penicillin-streptomycin (100 Units/mL) and heat-inactivated 5% fetal bovine serum under standard culture conditions (5% CO2, 37° C., 100% relative humidity). […] The suspension was diluted with the same medium to adjust the cell count to 5,000˜10,000 cells per well, and was moved in a 96-well microtiter, subsequently. After being incubated for 24 hrs, the cells were treated in a medium containing 50 μg/ml of ascorbic acid and 5 mM of β-glycerolphosphate with various concentrations of the isoxazole derivatives synthesized in Preparation Examples. During incubation for one to nine days, the Alkaline phosphatase activity was analyzed using a […] Assay kit (Promega, U.S.A.) according to the protocol described in the manual provided by the manufacturer. The activities were measured in cells which had been incubated at 11 μM of each of the compounds for 4 days. Data on the activities of the isoxazole derivatives synthesized are given in Tables 44 to 47 and are expressed as percentages of ALP relative to that measured in the control, which was treated only with ascorbic acid and β-glycerolphosphate. ALP activities according to the concentrations of Derivative (1) are depicted in FIG. 5.

As for `Cc1ccc(CCNC(=O)c2cc(-c3ccco3)on2)cc1` [Derivative (15), 5-furan-2-yl-isoxazole-3-carboxylic acid (2-p-tolyl-ethyl)-amide], the Emax at 30 µM in assay [1] and in assay [2] was under 20% throughout. Further, the activity at 11 µM in assay [3] worked out at 278%.

Regarding `COc1ccc(CCNC(=O)c2cc(-c3ccco3)on2)cc1` [Derivative (21), 5-furan-2-yl-isoxazole-3-carboxylic acid [2-(4-methoxy-phenyl)-ethyl]-amide], the Emax at 30 µM was 23% in assay [1] and 287% in assay [2]. Further, in assay [3], the activity at 11 µM turned out to be 334%.

On to `O=C(NCCc1ccc(O)c(O)c1)c1cc(-c2ccco2)on1` [Derivative (28), 5-furan-2-yl-isoxazole-3-carboxylic acid [2-(3,4-dihydroxy-phenyl)-ethyl]-amide], for which the Emax at 30 µM in assay [1] and in assay [2] was under 20% each time. The activity at 11 µM in assay [3] turned out to be 436%.

Take `Cc1nccn1CCNC(=O)c1cc(-c2ccco2)on1` [Derivative (35), 5-furan-2-yl-isoxazole-3-carboxylic acid [2-(2-methyl-imidazol-1-yl)-ethyl]-amide]: the Emax at 120 µM in assay [1] amounted to 35%; in assay [2] it was 130%. Further, the activity at 11 µM in assay [3] came to 686%.

Regarding `Cc1cncn1CCNC(=O)c1cc(-c2ccco2)on1` [Derivative (36), 5-furan-2-yl-isoxazole-3-carboxylic acid [2-(5-methyl-imidazol-1-yl)-ethyl]-amide], the Emax at 120 µM in assay [1] came to 71%; in assay [2], 283%. For the same compound, the activity at 11 µM in assay [3] turned out to be 396%.

For the compound `O=C(NCCn1ccnc1)c1cc(-c2ccccc2F)on1` [Derivative (85), 5-(2-fluoro-phenyl)-isoxazole-3-carboxylic acid (2-imidazol-1-yl-ethyl)-amide], the Emax at 30 µM in assay [1] and in assay [2] was under 20% in each case. Also, in assay [3], the activity at 11 µM was 640%.

In the case of `O=C(NCCn1ccnc1)c1cc(-c2ccc(F)cc2)on1` [Derivative (86), 5-(4-fluoro-phenyl)-isoxazole-3-carboxylic acid (2-imidazol-1-yl-ethyl)-amide], the Emax at 30 µM in assay [1] and in assay [2] was under 20% in each case. The activity at 11 µM in assay [3] came out at 546%.

In the case of `O=C(NCCn1cccn1)c1cc(-c2ccc(F)cc2)on1` [Derivative (87), 5-(4-fluoro-phenyl)-isoxazole-3-carboxylic acid (2-pyrazol-1-yl-ethyl)-amide], the Emax at 30 µM in assay [1] and in assay [2] was under 20% in each case. For the same compound, the activity at 11 µM in assay [3] was 428%.

For the compound `O=C(NCCCn1cncn1)c1cc(-c2ccc(Cl)cc2)on1` [Derivative (96), 5-(4-chloro-phenyl)-isoxazole-3-carboxylic acid (3-[1,2,4]triazol-1-yl-propyl)-amide], the Emax at 120 µM in assay [1] and in assay [2] was 80% throughout. Further, in assay [3], the activity at 11 µM was found to be 97%.

In the case of `O=C(NCCn1cncn1)c1cc(-c2ccc(Cl)cc2)on1` [Derivative (97), 5-(4-chloro-phenyl)-isoxazole-3-carboxylic acid (2-[1,2,4]triazol-1-yl-ethyl)-amide], the Emax at 10 µM in assay [1] and in assay [2] was 53% each time. For the same compound, in assay [3], the activity at 11 µM worked out at 91%.

`O=C(NCCCn1ccnc1)c1cc(-c2ccc(Cl)cc2)on1` [Derivative (98), 5-(4-chloro-phenyl)-isoxazole-3-carboxylic acid (3-imidazol-1-yl-propyl)-amide]: the Emax at 120 µM in assay [1] and in assay [2] was 54% each time. Further, in assay [3], the activity at 11 µM is 90%.

In the case of `COc1ccc(-c2cc(C(=O)NCCCn3ccnc3)no2)cc1` [Derivative (101), 5-(4-methoxy-phenyl)-isoxazole-3-carboxylic acid (3-imidazol-1-yl-propyl)-amide], the Emax at 120 µM in assay [1] and in assay [2] was 205% in each case. The activity at 11 µM in assay [3] is 592%.

In the case of `COc1ccc(-c2cc(C(=O)NCCc3ccncc3)no2)cc1` [Derivative (102), 5-(4-methoxy-phenyl)-isoxazole-3-carboxylic acid (2-pyridin-4-yl-ethyl)-amide], the Emax at 120 µM in assay [1] and in assay [2] was 73% in each case. For the same compound, the activity at 11 µM in assay [3] is 148%.

Turning to `COc1cccc(-c2cc(C(=O)NCCc3ccncc3)no2)c1` [Derivative (103), 5-(3-methoxy-phenyl)-isoxazole-3-carboxylic acid (2-pyridin-4-yl-ethyl)-amide], the Emax at 10 µM in assay [1] and in assay [2] was 42% each time. The activity at 11 µM in assay [3] came to 103%.

As for `COc1ccccc1-c1cc(C(=O)NCCc2ccncc2)no1` [Derivative (104), 5-(2-methoxy-phenyl)-isoxazole-3-carboxylic acid (2-pyridin-4-yl-ethyl)-amide], the Emax at 30 µM in assay [1] came to 35%. Further, the Emax at 60 µM in assay [1] (Conc. 60 μM) and in assay [2] (Con. 60 μM) was 884% each time. In assay [3], the activity at 11 µM was determined as 103%.

As to `O=C(NCCCn1ccnc1)c1cc(-c2ccc([N+](=O)[O-])cc2)on1` [Derivative (114), 5-(4-nitro-phenyl)-isoxazole-3-carboxylic acid (3-imidazol-1-yl-propyl)-amide], the Emax at 1 µM in assay [1] (Conc. 1 μM) and in assay [2] (Con. 1 μM) was 31% throughout. In addition, the activity at 11 µM in assay [3] is 339%.

For `O=C(NCCNC(=O)c1cc(-c2cccs2)on1)Nc1ccccc1` [Derivative (211), 5-thiophen-2-yl-isoxazole-3-carboxylic acid [2-(3-phenyl-urido)-ethyl]-amide], the Emax at 30 µM in assay [2] worked out at 158%. Besides, the activity at 11 µM in assay [3] turned out to be 204%.

Turning to `O=C(NCCOc1ccccc1)c1cc(-c2cccs2)on1` [Derivative (215), 5-thiophen-2-yl-isoxazole-3-carboxylic acid (2-phenoxy-ethyl)-amide], in assay [2], the Emax at 30 µM was 90%. In assay [3], the activity at 11 µM was 162%.

`O=C(NCCSc1ccccc1)c1cc(-c2cccs2)on1` [Derivative (218), 5-thiophen-2-yl-isoxazole-3-carboxylic acid (2-phenylsulfanyl-ethyl)-amide]: in assay [2], the Emax at 30 µM amounted to 55%. Also, the activity at 11 µM in assay [3] is 128%.

For the compound `O=C(NCCS(=O)(=O)Nc1ccccc1)c1cc(-c2cccs2)on1` [Derivative (220), 5-thiophen-2-yl-isoxazole-3-carboxylic acid (2-phenylsulfamoyl-ethyl)-amide], in assay [2], the Emax at 120 µM was determined as 182%. The activity at 11 µM in assay [3] was 187%.
